# Measured values taken from patent publication US10168342B2, “Lipid probes and uses thereof” (THE SCRIPPS RESEARCH INSTITUTE, priority 2015, dated 2019).
# Tests used:
# Assay in all cases: In situ competitive SILAC profiling with A-DA probe in (PMA-stimulated) A549 cells
# Conditions in all cases: A549 cells, A-DA probe
# [1] = target: T1, A-DA lipid probe targets in A549 cells (Homo sapiens, UniProt O75911)
# T1 sequence (O75911 1-302): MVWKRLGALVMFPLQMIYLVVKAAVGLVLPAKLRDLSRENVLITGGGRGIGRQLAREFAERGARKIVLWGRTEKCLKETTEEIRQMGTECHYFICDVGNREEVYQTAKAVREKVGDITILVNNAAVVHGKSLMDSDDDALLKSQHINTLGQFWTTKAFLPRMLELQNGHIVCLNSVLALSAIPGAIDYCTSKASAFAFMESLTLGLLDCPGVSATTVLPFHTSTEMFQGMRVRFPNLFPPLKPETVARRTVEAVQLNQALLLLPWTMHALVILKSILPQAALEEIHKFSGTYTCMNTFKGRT
# [2] = target: T2, A-DA lipid probe targets in A549 cells (Homo sapiens, UniProt O95470)
# T2 sequence (O95470 1-568): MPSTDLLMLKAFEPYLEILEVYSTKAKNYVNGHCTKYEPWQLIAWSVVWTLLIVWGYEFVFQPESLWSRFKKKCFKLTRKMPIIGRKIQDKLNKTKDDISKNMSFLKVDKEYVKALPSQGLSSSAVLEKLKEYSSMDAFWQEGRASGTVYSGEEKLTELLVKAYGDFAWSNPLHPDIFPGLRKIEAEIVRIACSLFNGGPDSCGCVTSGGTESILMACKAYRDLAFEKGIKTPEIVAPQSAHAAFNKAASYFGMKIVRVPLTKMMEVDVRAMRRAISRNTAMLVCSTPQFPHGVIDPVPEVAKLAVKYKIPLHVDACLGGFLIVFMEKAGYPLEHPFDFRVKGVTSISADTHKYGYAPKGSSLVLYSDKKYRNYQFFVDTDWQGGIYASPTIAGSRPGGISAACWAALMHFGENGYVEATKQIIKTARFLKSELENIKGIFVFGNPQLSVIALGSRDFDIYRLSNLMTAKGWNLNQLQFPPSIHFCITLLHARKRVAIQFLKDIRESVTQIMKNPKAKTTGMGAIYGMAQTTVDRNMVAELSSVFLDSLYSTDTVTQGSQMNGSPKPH
# [3] = target: T3, A-DA lipid probe targets in A549 cells (Homo sapiens, UniProt Q7Z2K6)
# T3 sequence (Q7Z2K6 1-904): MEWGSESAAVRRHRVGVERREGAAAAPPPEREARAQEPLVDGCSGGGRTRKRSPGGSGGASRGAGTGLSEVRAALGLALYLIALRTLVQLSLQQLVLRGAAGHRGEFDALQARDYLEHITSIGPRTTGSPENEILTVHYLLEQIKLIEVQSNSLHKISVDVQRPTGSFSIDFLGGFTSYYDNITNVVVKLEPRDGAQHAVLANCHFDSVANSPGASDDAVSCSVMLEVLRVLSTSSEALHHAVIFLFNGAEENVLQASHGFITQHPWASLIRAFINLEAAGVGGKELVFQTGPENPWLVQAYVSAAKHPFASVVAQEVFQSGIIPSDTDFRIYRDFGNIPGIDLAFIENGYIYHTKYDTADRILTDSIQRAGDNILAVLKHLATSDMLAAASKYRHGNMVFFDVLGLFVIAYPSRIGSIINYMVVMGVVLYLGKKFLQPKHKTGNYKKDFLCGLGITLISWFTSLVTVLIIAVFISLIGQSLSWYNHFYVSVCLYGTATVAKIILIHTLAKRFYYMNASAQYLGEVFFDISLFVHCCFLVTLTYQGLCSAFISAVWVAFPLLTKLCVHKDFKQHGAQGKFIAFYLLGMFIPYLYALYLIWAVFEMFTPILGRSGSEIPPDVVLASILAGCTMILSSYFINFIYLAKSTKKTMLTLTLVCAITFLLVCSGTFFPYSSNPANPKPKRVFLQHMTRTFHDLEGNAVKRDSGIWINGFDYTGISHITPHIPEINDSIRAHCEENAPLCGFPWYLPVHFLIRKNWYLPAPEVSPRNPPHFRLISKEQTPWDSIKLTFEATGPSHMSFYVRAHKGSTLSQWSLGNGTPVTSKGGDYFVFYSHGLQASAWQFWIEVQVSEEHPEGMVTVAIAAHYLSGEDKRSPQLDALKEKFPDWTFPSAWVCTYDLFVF
# [4] = target: T4, A-DA lipid probe targets in A549 cells (Homo sapiens, UniProt Q96G23)
# T4 sequence (Q96G23 1-380): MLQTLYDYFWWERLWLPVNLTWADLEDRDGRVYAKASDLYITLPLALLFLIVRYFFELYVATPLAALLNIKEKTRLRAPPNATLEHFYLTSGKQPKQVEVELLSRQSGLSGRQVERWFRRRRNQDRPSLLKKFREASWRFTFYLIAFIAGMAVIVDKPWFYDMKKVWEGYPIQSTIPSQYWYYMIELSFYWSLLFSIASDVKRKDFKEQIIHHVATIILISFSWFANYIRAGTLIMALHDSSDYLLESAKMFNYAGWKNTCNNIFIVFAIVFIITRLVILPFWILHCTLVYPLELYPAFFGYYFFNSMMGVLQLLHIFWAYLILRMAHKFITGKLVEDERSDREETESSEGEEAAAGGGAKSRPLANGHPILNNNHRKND
# [5] = target: T5, A-DA lipid probe targets in A549 cells (Homo sapiens, UniProt Q99536)
# T5 sequence (Q99536 1-393): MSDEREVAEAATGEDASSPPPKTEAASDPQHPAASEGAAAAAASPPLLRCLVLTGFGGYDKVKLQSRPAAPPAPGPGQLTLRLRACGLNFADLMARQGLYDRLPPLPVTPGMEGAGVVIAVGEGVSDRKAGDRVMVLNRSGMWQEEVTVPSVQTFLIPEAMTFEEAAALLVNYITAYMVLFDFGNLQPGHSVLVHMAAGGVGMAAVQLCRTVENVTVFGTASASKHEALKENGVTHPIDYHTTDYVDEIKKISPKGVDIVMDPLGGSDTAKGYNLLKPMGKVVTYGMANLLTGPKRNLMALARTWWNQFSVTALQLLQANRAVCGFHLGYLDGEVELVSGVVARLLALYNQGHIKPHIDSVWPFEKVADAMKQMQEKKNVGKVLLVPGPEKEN
Structure (SMILES),"SILAC ratio, DHRS3 (O75911) ([1]; competitor 25 μM)","SILAC ratio, SGPL1 (O95470) ([2]; competitor 25 μM)","SILAC ratio, ERMP1 (Q7Z2K6) ([3]; competitor 25 μM)","SILAC ratio, CERS2 (Q924Z4) ([4]; competitor 25 μM)","SILAC ratio, VAT1 (Q99536) ([5]; competitor 25 μM)","SILAC ratio, DHRS3 (O75911) ([1]; competitor 5 μM)","SILAC ratio, DHRS3 (O75911) ([1]; competitor 50 μM)","SILAC ratio, SGPL1 (O95470) ([2]; competitor 5 μM)","SILAC ratio, SGPL1 (O95470) ([2]; competitor 50 μM)","SILAC ratio, ERMP1 (Q7Z2K6) ([3]; competitor 5 μM)","SILAC ratio, ERMP1 (Q7Z2K6) ([3]; competitor 50 μM)","SILAC ratio, CERS2 (Q924Z4) ([4]; competitor 5 μM)","SILAC ratio, CERS2 (Q924Z4) ([4]; competitor 50 μM)","SILAC ratio, VAT1 (Q99536) ([5]; competitor 5 μM)","SILAC ratio, VAT1 (Q99536) ([5]; competitor 50 μM)"
"O=C(/C=C/c1cccnc1)NCCCCC1CCN(C(=O)c2ccccc2)CC1 [FK-866, reference compound]",2.0,1.2,1.6,1.4,4.0,,,,,,,,,,
C=CCN(C)CCCCCCOc1ccc(C(=O)c2ccc(Br)cc2)c(F)c1 [Ro488071],,,,,,1.8,3.1,1.5,3.0,1.4,3.2,1.5,2.5,1.4,2.5
